Laboratory results reported in a compilation of properties of binary mixtures (doi:10.1021/je300108z).

Assay: xn = mol fraction of the nth substance listed
Details: 101 kPa

## CCCCCCCC[N+](CC)(CC)CC.O=S(=O)([N-]S(=O)(=O)C(F)(F)F)C(F)(F)F + O
293.25 K, x2 = 0.1442
  viscosity: 107.8 mPa·s
298.05 K, x2 = 0.1442
  viscosity: 88.1 mPa·s
303.05 K, x2 = 0.1442
  viscosity: 69.8 mPa·s
313.05 K, x2 = 0.1442
  viscosity: 45.09 mPa·s

## CCCCCC[N+](CC)(CC)CC.O=S(=O)([N-]S(=O)(=O)C(F)(F)F)C(F)(F)F + O
298.05 K, x2 = 0.1618
  viscosity: 66.7 mPa·s
303.05 K, x2 = 0.1618
  viscosity: 54 mPa·s
313.05 K, x2 = 0.1618
  viscosity: 36.49 mPa·s
318.05 K, x2 = 0.1618
  viscosity: 30.73 mPa·s
322.95 K, x2 = 0.1618
  viscosity: 25.98 mPa·s

## CCCCCCCCCCCC[N+](CC)(CC)CC.O=S(=O)([N-]S(=O)(=O)C(F)(F)F)C(F)(F)F + O
302.95 K, x2 = 0.1238
  viscosity: 97.2 mPa·s
308.05 K, x2 = 0.1238
  viscosity: 76.6 mPa·s
313.05 K, x2 = 0.1238
  viscosity: 60.7 mPa·s
318.05 K, x2 = 0.1238
  viscosity: 48.8 mPa·s
322.95 K, x2 = 0.1238
  viscosity: 39.19 mPa·s
